Structures are written as SMILES.

The source of these data is patent US10456385B2 (priority 2011, dated 2019).

The assay has as its system Male ICR mice. As to the kind of experiment: Novel Object Recognition Test (NORT) in MK-801-induced amnesia mice. It counts as in vivo. The settings on record: Mus musculus, po, unit mg/kg from method, read-out: MED (dose at which NORT relative RI is given).
As to `O=C(NC1CN2CCC1CC2)c1ccc(=O)n(-c2nccs2)c1` (centres unmarked) [Example 1, N-(1-azabicyclo[2.2.2]octan-3-yl)-6-oxo-1-(2-thiazolyl)-3-pyridinecarboxamide], the minimal effective dose was 0.03 mg/kg.

On to `O=C(N[C@H]1CN2CCC1CC2)c1ccc(=O)n(-c2nccs2)c1` [Example 2, N-[(3R)-1-azabicyclo[2.2.2]octan-3-yl)-6-oxo-1-(2-thiazolyl)-3-pyridinecarboxamide], for which the minimal effective dose amounted to 0.01 mg/kg.

For `Cc1cnc(-n2cc(C(=O)NC3CN4CCC3CC4)ccc2=O)s1` (centres unmarked) [Example 10, N-(1-azabicyclo[2.2.2]octan-3-yl)-1-(5-methyl-2-thiazolyl)-6-oxo-3-pyridinecarboxamide], the minimal effective dose was 0.3 mg/kg.

Turning to `Cc1cnc(-n2cc(C(=O)N[C@H]3CN4CCC3CC4)ccc2=O)s1` [Example 11, N-[(3R)-1-azabicyclo[2.2.2]octan-3-yl]-1-(5-methyl-2-thiazolyl)-6-oxo-3-pyridinecarboxamide], the minimal effective dose is 0.03 mg/kg.

As to `CCc1cnc(-n2cc(C(=O)NC3CN4CCC3CC4)ccc2=O)s1` (centres unmarked) [Example 13, N-(1-azabicyclo[2.2.2]octan-3-yl)-1-(5-ethyl-2-thiazolyl)-6-oxo-3-pyridinecarboxamide], the minimal effective dose is 0.3 mg/kg.

Consider `CCc1cnc(-n2cc(C(=O)N[C@H]3CN4CCC3CC4)ccc2=O)s1` [Example 14, N-[(3R)-1-azabicyclo[2.2.2]octan-3-yl]-1-(5-ethyl-2-thiazolyl)-6-oxo-3-pyridinecarboxamide], for which the minimal effective dose turned out to be 0.03 mg/kg.

Take `CC(C)c1cnc(-n2cc(C(=O)NC3CN4CCC3CC4)ccc2=O)s1` (centres unmarked) [Example 17, N-(1-azabicyclo[2.2.2]octan-3-yl)-6-oxo-1-(5-propan-2-yl-2-thiazolyl)-3-pyridinecarboxamide]: the minimal effective dose turned out to be 0.3 mg/kg.

For `CC(C)(C)c1cnc(-n2cc(C(=O)NC3CN4CCC3CC4)ccc2=O)s1` (centres unmarked) [Example 20, N-(1-azabicyclo[2.2.2]octan-3-yl)-1-(5-tert-butyl-2-thiazolyl)-6-oxo-3-pyridinecarboxamide], the minimal effective dose amounted to 0.3 mg/kg.

With `O=C(NC1CN2CCC1CC2)c1ccc(=O)n(-c2ncc(C3CCCCC3)s2)c1` (centres unmarked) [Example 24, N-(1-azabicyclo[2.2.2]octan-3-yl)-1-(5-cyclohexyl-2-thiazolyl)-6-oxo-3-pyridinecarboxamide], the minimal effective dose amounted to 0.03 mg/kg.

`O=C(NC1CN2CCC1CC2)c1ccc(=O)n(-c2ncc(Cl)s2)c1` (centres unmarked) [Example 26, N-(1-azabicyclo[2.2.2]octan-3-yl)-1-(5-chloro-2-thiazolyl)-6-oxo-3-pyridinecarboxamide]: the minimal effective dose is 0.3 mg/kg.

With `O=C(NC1CN2CCC1CC2)c1ccc(=O)n(-c2nc3ccccc3s2)c1` (centres unmarked) [Example 33, N-(1-azabicyclo[2.2.2]octan-3-yl)-1-(1,3-benzothiazole-2-yl)-6-oxo-3-pyridinecarboxamide], the minimal effective dose is 0.01 mg/kg.
